The values that follow are results of earlier work, collected in patent US6682747B1 (Boehringer Ingelheim Pharma KG, priority 1998, dated 2004).

The conditions of the data set: buffered aqueous systems, pH 2-4.

Turning to `Cc1cnc(NC(=O)C2=C(O)c3ccccc3S(=O)(=O)N2C)s1` [meloxicam], the solubility entry is listed as “less than 0.5 μg/ml”.
